Results: patent US20230295229A1, “PEPTIDE SELECTIVELY BINDING TO CANCER CELL-DERIVED EXOSOME, AND USES THEREOF” (KYUNGPOOK NATIONAL UNIVERSITY INDUSTRY-ACADEMIC COOPERATION …, priority 2020, published 2023)
Values belong to the molecule of their own block, whether it stands above or below them. Primed or numbered codes have the meaning given here. No end group written: not given here. FITC′ = not defined here

Legend:
[1] = test system: exosome release of A549 cells; experiment: inhibition of exosome release, western blotting of exosome markers; assay type: cell-based, human; conditions: 10 μM compared to 2.5 and 5 μM
Method: In order to further identify the binding specificity of ExoPep to exosomes, GW4869 ([…], Sigma-Aldrich), a drug that inhibits the release of exosome out of cells, was treated to cells at various concentrations (2.5, 5, and 10 μM). Thereafter, exosomes were isolated, and electrophoresis and western blotting with antibodies against CD63, Alix, Tsg101, and calnexin (Abcam) were performed in the same manner as described in FIG. 1.

A549 cells [2] = experiment: cell viability CCK-8 assay with GW4869; assay type: cell-based, human; conditions: various concentrations, 3 hours serum-free then 24 hours
A549 cells [3] = experiment: internalization of exosomes and ExoPep after GW4869, immunofluorescence staining; assay type: cell-based, human; conditions: 10 μM GW4869
Method: Based on the above results, using 10 μM GW4869 inhibitor, the binding of the ExoPep peptide to the exosomes and internalization thereof were analyzed.

[4] = test system: A549 tumor nude mouse model; experiment: anticancer effect in the A549 tumor nude mouse model; assay type: in vivo
Method: To test anticancer effect using ExoPep-KLA in the A549 tumor nude mouse model, ExoPep-KLA peptides were pre-reacted with exosomes either alone or in vitro and then systemically administered intravenously for 3 weeks at the time points indicated in the protocol, and doxorubicin was administered once a week for 3 weeks (FIG. 14A).

[5] = test system: A549 tumor nude mouse model; experiment: co-administration of doxorubicin and ExoPep-KLA in the A549 tumor nude mouse model; assay type: in vivo
Method: In the A549 tumor nude mouse model, ExoPep-KLA peptide was administered three times a week at the indicated time points, and doxorubicin was administered once a week for three weeks. The timing of single and co-administration was shown in the treatment protocol (FIG. 16A).

[6] = test system: exosomes derived from A549 lung cancer cells; experiment: flow cytometry binding of FITC-labeled peptide to exosomes; design: species or system human; conditions: 4° C.
Description: (§1) 5 types of peptides (CTDTKIK, CRLSKKS, CRKVAKG, CRKRPAL, CAVRRKL) were synthesized based on the result of ELISA shown in FIG. 3. In order to investigate the binding of candidate peptides by FACS method, a peptide in which fluorescein isothiocyanate (FITC), a fluorescent substance, is conjugated to the carboxy terminus was synthesized by requesting Peptron Co. (Daegeon, Korea). Each peptide was synthesized by standard Fmoc method and purified by […]. In addition, FITC-labeled NSSSVDK peptide was used as a control.
(§2) In order to observe the peptide binding to the exosomes, biotin and exosomes were first combined in the same manner as described in FIG. 3, and then the exosomes were immobilized by binding with avidin beads. The exosome-bead complex was blocked for non-specific binding through treatment of 1% bovine serum albumin (BSA) dissolved in phosphate buffer for 30 minutes at room temperature. After washing, the FITC-labeled peptide was bound to the exosome-bead complex at 4° C. for 30 minutes. After the reaction, the binding of the peptide to the exosomes was analyzed using a flow cytometer.
On the other hand, in order to observe the peptide binding to the exosome-producing cells, 1×10^6 cells were first prepared. […] After the reaction, the binding of the peptide to the cells was analyzed using a flow cytometer.

[7] = test system: exosomes derived from H460 lung cancer cells; experiment: as above; conditions: 4° C.
Description: as §1, §2
(§3) On the other hand, in order to observe the peptide binding to the exosome-producing cells, 1×10^6 cells were first prepared. Each cell medium was treated with 1% BSA at 37° C. for 30 minutes. Thereafter, the FITC-labeled peptide was bound at 4° C. for 1 hour. After the reaction, the binding of the peptide to the cells was analyzed using a flow cytometer.

[8] = test system: exosomes derived from HT-29 colorectal cancer cells; experiment: as above; conditions: 4° C.
Description: as §1, §2, §3

[9] = test system: exosomes derived from HepG2 liver cancer cells; experiment: as above; conditions: 4° C.
Description: as §1, §2, §3

[10] = test system: exosomes derived from LLC mouse lung cancer cells; experiment: as above; conditions: 4° C.
Description: as §1, §2, §3

[11] = test system: exosomes derived from MDA-MB231 breast cancer cells; experiment: as above; conditions: 4° C.
Description: as §1, §2, §3

[12] = test system: exosomes derived from Panc-1 pancreatic cancer cells; experiment: as above; conditions: 4° C.
Description: as §1, §2, §3

[13] = test system: exosomes derived from normal HEK293 cells; experiment: as above; conditions: 4° C.
Description: as §1, §2, §3

[14] = test system: exosomes derived from normal MCF10A cells; experiment: as above; conditions: 4° C.
Description: as §1, §2, §3

[15] = test system: A549 cell-derived exosome / A549 cells; experiment: confocal microscopy of peptide internalization with exosomes; assay type: cell-based, human; conditions: 10 uM FITC-conjugated peptide, DiD-labeled exosomes, 37° C., 1 hour
Method: (§4) Media of A549, HEK293, and MDA-MB231 cells were collected, exosomes were isolated through ultracentrifugation, and exosomes were labeled with DiD fluorescence reagent (red), followed by a reaction with ExoPep peptide (FITC label, green). After the reaction, the cells were immobilized, and the nuclei were stained with DAPI (blue) to analyze with confocal microscopy. More specifically, the isolated exosomes and DiD (1:200 dilution) were reacted on a stirrer at 37° C. for 30 minutes. After adding Exoquick reagent, condition was maintained at 4° C. for 30 minutes, and then DiD-labeled exosomes were precipitated by centrifugation at 13000 rpm for 3 minutes. Thereafter, a mixture of 10 uM FITC-conjugated peptide and DiD-labeled exosomes was reacted with A549 cells at 37° C. for 1 hour. After washing three times, immobilization was performed using 2% paraformaldehyde (PFA). After washing again, cells were treated with 4′-6-diamidino-2-phenylindole (DAPI) for nucleus staining. Finally, after mounting, observation was followed using a confocal microscope (Zeiss, Oberkochen, Germany).

[16] = test system: exosomes derived from normal HEK293 cells / HEK293 cells; experiment: as above; assay type: cell-based; conditions: same manner
Method: as §4
On the other hand, the exosomes derived from normal HEK293 cells were treated in the same manner as described above and observed under a confocal microscope (Zeiss, Oberkochen, Germany).

[17] = test system: MDA-MB231 cell-derived exosome / MDA-MB231 cells; experiment: confocal microscopy of peptide internalization with CD63-GFP exosomes; assay type: cell-based; conditions: 10 uM TAMARA-conjugated peptide, 37° C., 1 hour
Method: In addition, an experiment was performed on exosomes derived from MDA-MB231 cells which were prepared to secrete exosomes showing green fluorescence by expressing CD63-GFP. GFP exosomes (green) and 10 uM TAMARA-conjugated peptide (red) were reacted with MDA-MB231 cells at 37° C. for 1 hour. Thereafter, after performing immobilization, DAPI nucleus staining, and mounting as described above, observation was followed using a confocal microscope (Zeiss, Oberkochen, Germany).

[18] = test system: A549 cell-derived exosomes; experiment: inhibition of exosome internalization by magnetic removal of peptide-bound exosomes; assay type: cell-based, human; conditions: exosomes pretreated with biotin-labeled peptide, then removed with magnet
Method: (§5) In order to further identify the binding specificity of the ExoPep peptide to the A549 cell-derived exosome, the exosomes were labeled with a DID fluorescent dye, reacted with the biotin-labeled ExoPep peptide, and then conjugated with biotin by reacting the labeled avidin with magnetic particles. The complex of exosomes/biotin-peptide/avidin-magnetic particles prepared by the reaction was captured and removed using a magnet, and the remaining exosomes were treated to recipient cells (FIG. 5A).

[19] = test system: exosomes derived from normal HEK293 cells; experiment: as above; assay type: cell-based; conditions: exosomes pretreated with biotin-labeled peptide, then removed with magnet
Method: as §5
On the other hand, internalization of exosomes into recipient cells was not reduced by pretreatment with the control peptide (sequence: NSSSVDK) (FIG. 5B). In addition, when a similar experiment was conducted on exosomes derived from normal HEK293 cells, the internalization of exosomes into recipient cells was not inhibited by the ExoPep peptide of an example embodiment of the present disclosure as well as the control peptide (FIG. 5C).

[20] = test system: A549 tumor mouse blood-derived exosome; experiment: flow cytometry binding of FITC-labeled ExoPep to blood-derived exosomes; conditions: FITC-labeled peptide, CD63 antibody beads
Method: A549 cells were injected into BALB/c nude mice, blood was collected after the tumor grew, and exosomes were isolated using an exosome isolation kit. To measure the binding of the peptide to the exosomes by flow cytometry, the exosomes were labeled with CD63 antibody beads. As a control group, exosomes isolated from the blood of normal mice were used. The exosome-bead complex labeled with CD63 beads was blocked by a reaction with 1% BSA/PBS at room temperature for 30 minutes to reduce non-specific binding. After washing, the FITC-labeled ExoPep peptides were bound to the exosome-bead complex at 4° C. for 30 minutes. After washing again with PBS, the binding of the peptide to the exosome-bead complex was analyzed using a flow cytometer (ThermoFisher Scientific, USA) (FIG. 7A).

recipient cell A549 = experiment: internalization of peptide with blood-derived exosomes into cells; assay type: cell-based, human; conditions: DiD-labeled exosomes, FITC-labeled peptide
Method: In order to observe internalization of peptides into cells, exosomes were labeled with DiD, reacted with FITC-labeled peptides, and treated to A549 cells. Cells were immobilized with 4% paraformaldehyde for 5 minutes and stained with DAPI, followed by observation under a microscope.

red blood cells = experiment: in vitro hemolysis assay; assay type: cell-based; conditions: various concentrations up to a final concentration of 200 μM, 37° C., 1 hour
Method: Next, an in vitro hemolysis assay was performed. In vitro hemolysis assay, as an indicator of hemolysis of red blood cells after exposure to a drug or an agent, was conducted by measuring the hemoglobin release in plasma. This is an accurate, sensitive method to predict the hemolytic activity of a drug. Fresh blood was centrifuged at 500×g for 10 minutes, and the pellet of red blood cells was washed 3 times and re-suspended in 10 mM PBS in pH 7.4. Equal volumes of red blood cells were reacted with various concentrations of ExoPep peptide by stirring at 37° C. for 1 hour. The samples were then centrifuged at 4° C. at 500×g for 10 minutes. RBC lysis was measured by analyzing absorbance at OD 540 nm depending on the concentration of different peptides. […] The hemolytic activity of the peptide was calculated in a percentage using the following equation.
H=100×(OP−OB)/(OT−OB) Equation:
In the equation above, OP, OB, and OT represent optical density of the peptide solution at an indicated concentration, optical density of a buffer, and optical density of Triton X 100, respectively.

A549 tumor mice = experiment: in vivo distribution imaging of DiD-labeled exosomes with or without ExoPep; design: species or system mouse; conditions: without exosomes
Method: DiD-labeled A549 tumor mouse blood-derived exosomes and A549 cell-derived exosomes were reacted with ExoPep peptide, and image monitoring was performed for in vivo distribution. Tumor xenograft mice were prepared by subcutaneously implanting A549 cell suspension (5×10^6 cells) along with PBS into the right flank of 5-week-old female BALB/c nude mice. When the tumor size reached a volume of approximately 100-200 mm^3, the mice were anesthetized. A549 tumor mice was intravenously administered with DiD-labeled A549 tumor mouse blood-derived exosomes (mEXO) and a product obtained by reacting the exosomes (mEXO) with peptides (mEXO+ExoPep, n=3) as well as DiD-labeled A549 cell-derived exosomes (cEXO) and a product obtained by reacting the exosomes (cEXO) with peptides (cEXO+ExoPep, n=3). The inventors of the present disclosure used FITC-labeled control peptide and ExoPep (n=3) as controls. In vivo fluorescence images were analyzed using an IVIS imaging system (Caliper Life Sciences, Massachusetts, USA) at various time points (2, 4, 8, and 24 hours, respectively) after administration of DiD-labeled exosomes. In vitro fluorescence images of excised tumors and organs were collected 24 hours after administration. All major organs (liver, kidney, spleen, heart, and lung) having tumor tissues were separated, washed with PBS, and subjected to in vitro fluorescence analysis (n=3).

Molecule: O=C(/C=C/c1ccc(/C=C/C(=O)Nc2ccc(C3=NCCN3)cc2)cc1)Nc1ccc(C2=NCCN2)cc1 [GW4869]
- exosome markers such as CD63, Alix, and Tsg101 [1]: greatly reduced
- cytotoxicity (CCK-8) (A549 cells [2]): did not show toxicity even at high concentration
- internalization of exosomes and peptides bound therewith (A549 cells [3]): significantly reduced

Molecule: COc1cccc2c1C(=O)c1c(O)c3c(c(O)c1C2=O)C[C@@](O)(C(=O)CO)C[C@@H]3O[C@H]1C[C@H](N)[C@H](O)[C@H](C)O1 [doxorubicin]
- tumor growth ([4]; intravenous, 3 weeks): significantly inhibited
- weight of tumor ([4]; mouse, in vivo): reduced
- size of tumor ([5]; 2.5 mg/kg, compared to phosphate buffer): slightly reduced
- size of tumor ([5]; 5 mg/kg): more strongly inhibited
- metastatic nodules and microscopic nodules ([5]; 5 mg/kg, compared to buffer): significantly reduced

- binding to tumor mouse blood-derived exosome versus normal mouse blood-derived exosome [20]: bound better
Molecule: CRKVAKG [ExoPep]
- binding to exosomes compared to exosome-producing cell [6]: higher binding
- binding to exosomes compared to exosome-producing cell [7]: higher binding
- binding to exosomes compared to exosome-producing cell [8]: very low binding, or no higher binding
- binding to exosomes compared to exosome-producing cell [9]: very low binding, or no higher binding
- binding to exosomes compared to exosome-producing cell [10]: very low binding, or no higher binding
- binding to exosomes compared to exosome-producing cell [11]: higher binding
- binding to exosomes compared to exosome-producing cell [12]: higher binding
- binding to exosomes compared to exosome-producing cell [13]: very low binding, or no higher binding
- binding to exosomes compared to exosome-producing cell [14]: very low binding, or no higher binding
- peptide observed in cells (internalization with exosomes) [15]: observed along with the exosomes in A549 cells
- peptide observed in cells (internalization with exosomes) [16]: not observed in the cells
- peptide observed in cells (internalization with exosomes) [17]: more of which were observed in the cells than the control peptide
- internalization of exosomes into recipient cells [18]: significantly inhibited
- internalization of exosomes into recipient cells [19]: not inhibited
- internalization into recipient cell, tumor versus normal mouse blood-derived exosome (recipient cell A549): internalized more
- hemolytic activity (red blood cells): only low levels of hemolytic activity
- fluorescence signal of FITC-labeled peptide itself (A549 tumor mice): low signals

Molecule: NSSSVDK (NSSSVDK-{FITC′}) [control peptide, reference compound]
- peptide observed in cells (internalization with exosomes) [15]: not observed
- peptide observed in cells (internalization with exosomes) [16]: not observed in the cells
- internalization of exosomes into recipient cells [18]: not reduced
- internalization of exosomes into recipient cells [19]: not inhibited
- fluorescence signal of FITC-labeled peptide itself (A549 tumor mice): low signals
